Test [1] deals with mechanical allodynia induced by spinal nerve ligation in rats. Description: Rat (Chung) model of neuropathic pain, von Frey paw withdrawal threshold. In kind it is in vivo. The following applies: for Withdrawal threshold (g) at peak effect: spinal nerve ligation; for Effect on mechanical allodynia (in words): oral administration, three doses; for ED50: po, read-out: ED50 at peak effect (dose at which allodynia is reversed by 50%). On the procedure: In this model, mechanical allodynia is induced by tight ligation of the left L5 spinal nerve.
Male Wistar rats (150-175 g body weight at time of surgery) were employed in the study. Rats were placed on an elevated (˜40 cm) mesh floor in perspex boxes and the rats' withdrawal threshold to a mechanical stimulus (calibrated von Frey filaments) was measured using filaments of increasing force (2.6-167 mN). The von Frey filaments were applied to the plantar surface of the paw and the thershold response was determined using the up and down method. A positive response was noted if the paw was sharply withdrawn. A cut-off of 15 g was selected as the upper limit for testing. Following baseline measurements each animal was anaesthetised and the L5 spinal nerve tightly ligated. The animals were allowed to recover from the surgery for a period of at least three days. On the day of drug administration the paw withdrawal thresholds were re-measured (0 min). Immediately after this reading, the rats were dosed orally with vehicle or test compound. Readings were then made at intervals of 30, 60, 120, 180 and 240 min after compound administration.
Data were expressed as mean±s.e.m. The time of maximum effect for each animal in the top dose group was determined and these values averaged to calculate the mean time of maximum effect. For analytical purposes the time of maximum effect, tmax was defined as the time point closest to this averaged value. Data at tmax were compared between groups using the Kruskal-Wallis one-way analysis of variance, a non-parametric statistical test. Each of the treatment groups were then compared against the vehicle group, using the non-parametric Dunn's test. The ED50 (dose at which allodynia is reversed by 50%) value was also calculated at tmax using non linear regression (sigmoidal dose response; variable slope) with constants of 0 and 15 g (cut-off) for the bottom and top, respectively (XLFit software).

In test [2] the test system is tail flick latency in mice. In words: Mouse tail flick assay of acute thermal pain. The format is in vivo. Conditions: for Tail Flick Latency: mouse; for Effect on tail flick latencies (in words): oral administration, three doses, mouse, 20, 40 and 60 min post administration. On the procedure: The tail flick test is used to evaluate the antinociceptive activity of test compounds in mice. Animals are placed on the tail flick apparatus and their tails exposed to a focused beam of radiant heat. The mice react to the noxious thermal stimulus by flicking their tail away from the heat source. The time taken for these responses to occur is measured (latency; s).
Experiments were performed using male ICR mice weighing (25-32 g). In brief, animals were held in place on the tail flick apparatus (Ugo Basile, Italy) by means of a perspex restrainer and their tail was positioned over the heat source. The latency to flick the tail from the radiant heat source focussed 2.5 cm from the tip was determined before (baseline readings) and at regular intervals after administration of the vehicle or test compounds (compound 1, 5.6-55.6 μmol/kg p.o.; compound 2, 5.3-52.6 μmol/kg p.o.). A 12 seconds cut-off was employed to prevent tissue damage.
Data are expressed as mean±s.e.m. and compared between groups using the Kruskal-Wallis one-way analysis of variance, a non-parametric statistical test. If statistical significance (P<0.05) is observed with this test, the vehicle group and each of the treatment groups is compared using the non-parametric Dunn's test.

Test [3] relates to mechanical hyperalgesia induced by complete Freund's adjuvant in rats. Description: Rat CFA model of inflammatory pain, Randall-Sellito paw withdrawal threshold. The following applies: for % Attenuation of hyperalgesia (peak effect): 7 days after CFA, peak effect 30 min. The format is in vivo. On the procedure: In this model, inflammation is induced by subcutaneous injection of complete Freund's adjuvant (CFA) into the hind paw. The associated mechanical hyperalgesia is quantified by measuring the reduction in paw withdrawal threshold (PWT) to a mechanical compression of the paw.
Experiments were in male Wistar rats weighing (130-180 g). In brief, the rats' paw withdrawal threshold (PWT) to a mechanical compression of the hind paw was measured (baseline reading) using a Randall-Sellito apparatus (Ugo Basile). A cut-off of 200 g was employed to minimise tissue damage to the paw. The animals were then lightly anaesthetised with isoflurane (1-3%) and CFA (0.1 ml·paw^−1) injected subcutaneously (s.c.) into the plantar surface of the left hind paw. The animals were then returned to their home cage and left for the inflammation to develop.
Seven days after CFA injection, PWT's were re-measured (0 min) and immediately after this reading, rats were dosed orally with either vehicle or compound 2 (3-30 mg/kg). Readings were then made at 30 min and 2 h post drug administration.
Data were plotted as mean±s.e.m. and compared between groups using the Kruskal-Wallis one-way analysis of variance, a non-parametric statistical test. […] The percent attenuation of mechanical hyperalgesia is calculated at time of peak effect (tmax)

Test [4] has as its system tolerance development to the analgesic activity of morphine. The following applies: Database WPI, Derwent abstract; cited from earlier work.

Regarding `COc1cc(-c2nc3ccc(-c4cccc(CN(C)C)c4)cc3c(=O)n2CC(=O)NC(C)C)ccc1F` [Compound 1, 2-[6-(3-Dimethylaminomethylphenyl)-2-(4-fluoro-3-methoxyphenyl)-4-oxo-4H-quinazolin-3-yl]-N-isopropylacetamide], the “Withdrawal threshold (g) at peak effect” value turned out to be 4.6 ± 0.6 g in test [1] (5.6 μmol/kg p.o., peak effect 120 min); 5.6 ± 1.1 g in test [1] (18.6 μmol/kg p.o., peak effect 120 min); 11.4 ± 0.7 g in test [1] (55.6 μmol/kg p.o., peak effect 120 min). For the same compound, the “Effect on mechanical allodynia (in words)” value in test [1] is on record as “reversed mechanical allodynia in a dose-dependent fashion”. Further, the “Time of peak anti-allodynic effect post drug administration” value in test [1] (p.o.) worked out at 120 min. Besides, in test [1] (at tmax), the ED50 was determined as 21.2 µmol/kg. Moreover, the “Tail Flick Latency” value in test [2] (5.6 μmol/kg p.o., 20 min post dose) is given as 3.5 ± 0.4 s; in test [2] (5.6 μmol/kg p.o., 40 min post dose), 3.4 ± 0.2 s; in test [2] (5.6 μmol/kg p.o., 60 min post dose), 3.5 ± 0.2 s; in test [2] (18.6 μmol/kg p.o., 20 min post dose) it was 3.4 ± 0.3 s; in test [2] (18.6 μmol/kg p.o., 40 min post dose) it was 3.5 ± 0.2 s; in test [2] (18.6 μmol/kg p.o., 60 min post dose) it was 3.1 ± 0.2 s. Moreover, the “Tail Flick Latency” value in test [2] (55.6 μmol/kg p.o., 20 min post dose) is listed as 3.3 ± 0.3 s; in test [2] (55.6 μmol/kg p.o., 40 min post dose), 3.5 ± 0.3 s; in test [2] (55.6 μmol/kg p.o., 60 min post dose), 3.3 ± 0.2 s. In addition, in test [2], the “Effect on tail flick latencies (in words)” value is reported as “had no effect on tail flick latencies”.
As to `CC(C)NC(=O)Cn1c(-c2cccc(Cl)c2)nc2ccc(OCCCN3CCCCC3)cc2c1=O` [Compound 2], the “Withdrawal threshold (g) at peak effect” value turned out to be 4.8 ± 1.0 g in test [1] (5.3 μmol/kg p.o., peak effect 30 min); 6.7 ± 1.1 g in test [1] (17.3 μmol/kg p.o., peak effect 30 min); 9.8 ± 1.8 g in test [1] (52.6 μmol/kg p.o., peak effect 30 min). Also, in test [1], the “Effect on mechanical allodynia (in words)” value is “reversed mechanical allodynia in a dose-dependent fashion”. Further, the “Time of peak anti-allodynic effect post drug administration” value in test [1] (p.o.) was determined as 30 min. The “ED50 at peak effect (dose at which allodynia is reversed by 50%)” value in test [1] (p.o., at tmax) came to 21.0 µmol/kg. Also, the “% Attenuation of hyperalgesia (peak effect)” value in test [3] (5.7 μmol/kg p.o.) turned out to be 31.5 ± 9.4%; in test [3] (18.9 μmol/kg p.o.), 43.1 ± 8.6 %; in test [3] (56.6 μmol/kg p.o.), 84.4 ± 12.0 %. For the same compound, the “Effect on mechanical hyperalgesia induced by CFA (in words)” value in test [3] (oral administration 5.7, 18.9 or 56.6 μmol/kg) was “reversed mechanical hyperalgesia induced by CFA in a dose-dependent fashion”. Besides, the “ED50 at peak effect (mechanical hyperalgesia)” value in test [3] (p.o., CFA) came out at 19.2 µmol/kg. The “Time of peak anti-algesic effect post drug administration” value in test [3] (p.o., CFA) came out at 30 min. Besides, the “Tail Flick Latency” value is reported as 3.4 ± 0.2 s in test [2] (5.3 μmol/kg p.o., 20 min post dose); 3.7 ± 0.2 s in test [2] (5.3 μmol/kg p.o., 40 min post dose); 3.6 ± 0.1 s in test [2] (5.3 μmol/kg p.o., 60 min post dose); 3.6 ± 0.1 s in test [2] (17.3 μmol/kg p.o., 20 min post dose); 3.6 ± 0.1 s in test [2] (17.3 μmol/kg p.o., 40 min post dose); 3.1 ± 0.1 s in test [2] (17.3 μmol/kg p.o., 60 min post dose). For the same compound, the “Tail Flick Latency” value in test [2] (52.6 μmol/kg p.o., 20 min post dose) is given as 3.5 ± 0.2 s; in test [2] (52.6 μmol/kg p.o., 40 min post dose), 3.5 ± 0.2 s; in test [2] (52.6 μmol/kg p.o., 60 min post dose), 3.2 ± 0.2 s. Besides, the “Effect on tail flick latencies (in words)” value in test [2] is “had no effect on tail flick latencies”.
`COc1ccc(S(=O)(=O)N2C(=O)[C@@](c3ccccc3OC)(N3C[C@H](O)C[C@H]3C(=O)N(C)C)c3cc(Cl)ccc32)c(OC)c1` [Compound 3, reference compound]: the “Withdrawal threshold (g) at peak effect” value in test [1] (3 μmol/kg p.o., peak effect 180 min) turned out to be 5.0 ± 1.0 g; in test [1] (10 μmol/kg p.o., peak effect 180 min), 6.9 ± 1.3 g; in test [1] (30 μmol/kg p.o., peak effect 180 min), 10.1 ± 1.4 g. In addition, the “Effect on mechanical allodynia (in words)” value in test [1] was “reversed mechanical allodynia in a dose-dependent fashion”. Further, the “Time of peak anti-allodynic effect post drug administration” value in test [1] (p.o.) amounted to 180 min. Further, in test [1] (at tmax), the ED50 came out at 10.6 µmol/kg. Further, in test [4], the “Effect on tolerance development to the analgesic activity of morphine (in words)” value is listed as “inhibits the tolerance development to the analgesic activity of morphine”.

The values are drawn from US20100179176A1, “V3 ANTAGONISTS FOR THE TREATMENT OR PREVENTION OF CHRONIC PAIN” (N.V. Organon, priority 2007, published 2010).
